In ChEMBL document CHEMBL5104090, “Recent advances in the medicinal chemistry of carbonic anhydrase inhibitors” (Eur J Med Chem, 2021):

Columns and labels:
Carbonic anhydrase 12 = Carbonic anhydrase 12 (Homo sapiens, UniProt O43570)
Carbonic anhydrase 1 = Carbonic anhydrase 1 (Homo sapiens, UniProt P00915)
Ca9-22 = test: cells; format: functional; conditions: Homo sapiens, time 48 hrs
Description: Cytotoxicity against human Ca9-22 cells assessed as cell growth inhibition measured after 48 hrs by MTT assay

Carbonic anhydrase 9 [1] = biological target: T1, Carbonic anhydrase 9 (Homo sapiens, UniProt Q16790)
Carbonic anhydrase 9 [2] = biological target: T1, Carbonic anhydrase 9; remark: listed apart in the source

Sequence of Carbonic anhydrase 1 (P00915 whole entry): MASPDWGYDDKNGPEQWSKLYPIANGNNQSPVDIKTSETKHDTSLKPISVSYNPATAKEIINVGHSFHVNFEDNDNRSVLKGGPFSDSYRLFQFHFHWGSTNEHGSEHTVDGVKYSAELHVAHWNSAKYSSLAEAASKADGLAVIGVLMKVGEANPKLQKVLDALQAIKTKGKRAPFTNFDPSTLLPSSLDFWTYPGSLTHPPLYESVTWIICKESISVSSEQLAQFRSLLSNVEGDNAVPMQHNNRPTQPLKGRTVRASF
Sequence of Carbonic anhydrase 12 (O43570 whole entry): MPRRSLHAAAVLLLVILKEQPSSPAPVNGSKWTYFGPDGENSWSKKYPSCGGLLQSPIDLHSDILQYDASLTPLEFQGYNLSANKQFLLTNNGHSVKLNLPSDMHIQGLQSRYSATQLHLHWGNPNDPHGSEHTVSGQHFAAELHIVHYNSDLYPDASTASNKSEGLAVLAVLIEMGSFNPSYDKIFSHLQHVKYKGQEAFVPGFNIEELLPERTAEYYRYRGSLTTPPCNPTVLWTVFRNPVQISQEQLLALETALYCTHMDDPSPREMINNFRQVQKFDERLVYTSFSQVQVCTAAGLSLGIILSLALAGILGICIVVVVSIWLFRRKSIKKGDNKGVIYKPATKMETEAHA

Ki (Carbonic anhydrase 12)	Ki (Carbonic anhydrase 1)	Ki (Carbonic anhydrase 9 [1])	Ki (Carbonic anhydrase 9 [2])	Structure (SMILES)	CC50 (Ca9-22)
0.0052 µM	–	–	–	NS(=O)(=O)c1ccc(CCNC(=O)CSc2nc3ccc(I)cc3c(=O)n2Cc2ccccc2)cc1	–
> 0.009 µM	> 0.23 µM	> 0.044 µM	–	COc1cc(OC)c(C2CC(c3ccc(Cl)cc3)=NN2c2ccc(S(N)(=O)=O)cc2)cc1OC (configuration not stated)	6.3 µM
> 0.009 µM	> 0.23 µM	> 0.044 µM	–	COc1ccc(C2CC(c3ccc(Cl)cc3)=NN2c2ccc(S(N)(=O)=O)cc2)c(OC)c1OC (configuration not stated)	6.3 µM
–	–	0.0236 µM	–	CCN1C(=O)/C(=N\Nc2ccc(S(N)(=O)=O)cc2)c2ccccc21	–
> 0.009 µM	> 0.23 µM	> 0.044 µM	–	COc1cc(OC)c(C2CC(c3ccccc3)=NN2c2ccc(S(N)(=O)=O)cc2)cc1OC (configuration not stated)	6.3 µM
–	–	0.0173 µM	–	C/C(=N\NC(=O)c1ccc(S(N)(=O)=O)cc1)c1ccc(N2C(=O)C3C(C2=O)C2(Cl)C(Cl)=C(Cl)C3(Cl)C2(Cl)Cl)cc1 (configuration not stated)	–
0.0074 µM	–	–	–	CC(C)[C@@H](CC(=O)[C@@H](C)CC(=O)OCc1ccccc1)C(=O)NCc1ccc(S(N)(=O)=O)cc1	–
0.0343 µM	–	–	–	CCN1C(=O)/C(=N\NC(=O)CNc2ccc(S(N)(=O)=O)cc2)c2ccccc21	–
0.0343 µM	–	0.0139 µM	–	C=CCN1C(=O)/C(=N\c2ccc(S(N)(=O)=O)cc2)c2ccccc21	–
–	–	0.0173 µM	–	C/C(=N\NC(=O)c1ccc(S(N)(=O)=O)cc1)c1ccc(N2C(=O)c3ccc(C)cc3C2=O)cc1	–
–	–	0.0173 µM	–	C/C(=N\NC(=O)c1ccc(S(N)(=O)=O)cc1)c1ccc(N2C(=O)C3CC=CCC3C2=O)cc1 (configuration not stated)	–
> 0.009 µM	> 0.23 µM	> 0.044 µM	–	COc1ccc(C2CC(c3ccccc3)=NN2c2ccc(S(N)(=O)=O)cc2)c(OC)c1OC (configuration not stated)	6.3 µM
–	–	0.169 µM	–	C/C(=N\O)c1ccc(N2C(=O)c3ccc(C(=O)O)cc3C2=O)cc1	–
0.0343 µM	–	0.0139 µM	–	CN1C(=O)/C(=N\c2ccc(S(N)(=O)=O)cc2)c2ccccc21	–
–	–	0.0173 µM	–	C/C(=N\NC(=O)c1ccc(S(N)(=O)=O)cc1)c1ccc(N2C(=O)c3ccc(C(=O)O)cc3C2=O)cc1	–
> 0.009 µM	> 0.23 µM	> 0.044 µM	–	COc1cc(C2CC(c3ccc(Br)cc3)=NN2c2ccc(S(N)(=O)=O)cc2)cc(OC)c1OC (configuration not stated)	6.3 µM
0.0223 µM	–	–	–	COc1ccc(C(=O)N2C(=O)/C(=N\NC(=O)CNc3ccc(S(N)(=O)=O)cc3)c3ccccc32)cc1	–
–	–	0.0018 µM	–	CC(C)(C)OC(=O)C[C@H](Cc1ccccc1)C(=O)CCC(=O)NCc1ccc(S(N)(=O)=O)cc1	–
0.0343 µM	–	–	–	C=CCN1C(=O)/C(=N\Nc2ccc(S(N)(=O)=O)cc2)c2ccccc21	–

Ki (Carbonic anhydrase 12)	Ki (Carbonic anhydrase 1)	Ki (Carbonic anhydrase 9 [1])	Ki (Carbonic anhydrase 9 [2])	Structure (SMILES)	CC50 (Ca9-22)
–	–	0.169 µM	–	C/C(=N\O)c1ccc(N2C(=O)c3cc(Cl)c(Cl)cc3C2=O)cc1	–
0.0343 µM	–	0.0139 µM	–	CCN1C(=O)/C(=N\c2ccc(S(N)(=O)=O)cc2)c2ccccc21	–
–	–	0.0012 µM	–	NS(=O)(=O)c1cccc(-c2nc(-c3cccnc3)no2)c1	–
–	–	0.0016 µM	–	COc1ccc2nc(S/C(=N/Nc3ccc(S(N)(=O)=O)cc3)C(C)=O)n(-c3ccccc3)c(=O)c2c1	–
0.0343 µM	–	0.0139 µM	–	CN1C(=O)/C(=N\NC(=O)CNc2ccc(S(N)(=O)=O)cc2)c2ccccc21	–
–	–	–	0.0193 µM	NS(=O)(=O)c1ccc(CCn2c(SCc3ccc(F)cc3)nc3ccccc3c2=O)cc1	–
–	–	0.169 µM	–	C/C(=N\O)c1ccc(N2C(=O)c3c(Br)c(Br)c(Br)c(Br)c3C2=O)cc1	–
> 0.009 µM	> 0.23 µM	> 0.044 µM	–	COc1cc(C2CC(c3ccccc3)=NN2c2ccc(S(N)(=O)=O)cc2)cc(OC)c1OC (configuration not stated)	6.3 µM
–	–	0.169 µM	–	C/C(=N\O)c1ccc(N2C(=O)c3ccccc3C2=O)cc1	–
> 0.009 µM	> 0.23 µM	> 0.044 µM	–	COc1cc(OC)c(C2CC(c3ccc(F)cc3)=NN2c2ccc(S(N)(=O)=O)cc2)cc1OC (configuration not stated)	6.3 µM
> 0.009 µM	> 0.23 µM	> 0.044 µM	–	COc1cc(C2CC(c3ccc(C(F)(F)F)cc3)=NN2c2ccc(S(N)(=O)=O)cc2)cc(OC)c1OC (configuration not stated)	6.3 µM
> 0.009 µM	> 0.23 µM	> 0.044 µM	–	COc1ccc(C2CC(c3ccc(F)cc3)=NN2c2ccc(S(N)(=O)=O)cc2)c(OC)c1OC (configuration not stated)	6.3 µM
–	–	0.0838 µM	–	C/C(=N\NC(=O)c1ccc(S(N)(=O)=O)cc1)c1ccc(N2C(=O)c3ccc(C(C)(C)C)cc3C2=O)cc1	–
–	–	0.0173 µM	–	C/C(=N\NC(=O)c1ccc(S(N)(=O)=O)cc1)c1ccc(N2C(=O)c3ccccc3C2=O)cc1	–
–	–	0.0148 µM	–	Cc1ccc(-c2cc(C(F)(F)F)nn2-c2ccc(S(N)(=O)=O)cc2)cc1 [CELECOXIB]	–
–	–	0.169 µM	–	C/C(=N\NC(=O)c1ccc(S(N)(=O)=O)cc1)c1ccc(N2C(=O)c3cc(Cl)c(Cl)cc3C2=O)cc1	–
> 0.009 µM	> 0.23 µM	> 0.044 µM	–	COc1cc(C2CC(c3ccc(Cl)cc3)=NN2c2ccc(S(N)(=O)=O)cc2)cc(OC)c1OC (configuration not stated)	6.3 µM
–	–	0.169 µM	–	C/C(=N\O)c1ccc(N2C(=O)c3ccc(C)cc3C2=O)cc1	–
> 0.009 µM	> 0.23 µM	> 0.044 µM	–	COc1cc(OC)c(C2CC(c3ccc(C(F)(F)F)cc3)=NN2c2ccc(S(N)(=O)=O)cc2)cc1OC (configuration not stated)	6.3 µM

Ki (Carbonic anhydrase 12)	Ki (Carbonic anhydrase 1)	Ki (Carbonic anhydrase 9 [1])	Ki (Carbonic anhydrase 9 [2])	Structure (SMILES)	CC50 (Ca9-22)
–	–	0.0173 µM	–	C/C(=N\NC(=O)c1ccc(S(N)(=O)=O)cc1)c1ccc(N2C(=O)c3c(Br)c(Br)c(Br)c(Br)c3C2=O)cc1	–
0.0343 µM	–	–	–	NS(=O)(=O)c1ccc(NCC(=O)N/N=C2\C(=O)Nc3ccccc32)cc1	–
–	–	0.169 µM	–	C/C(=N\O)c1ccc(N2C(=O)C3CC=CCC3C2=O)cc1 (configuration not stated)	–
–	–	0.0139 µM	–	CN1C(=O)/C(=N\Nc2ccc(S(N)(=O)=O)cc2)c2ccccc21	–
> 0.009 µM	> 0.23 µM	> 0.044 µM	–	COc1ccc(C2CC(c3ccc(Br)cc3)=NN2c2ccc(S(N)(=O)=O)cc2)c(OC)c1OC (configuration not stated)	6.3 µM
–	–	0.0069 µM	–	O=S1(=O)C=Cc2cc(-n3nncc3-c3ccc(F)cc3)ccc2O1	–
–	–	0.0139 µM	–	NS(=O)(=O)c1ccc(N/N=C2\C(=O)N(Cc3ccccc3)c3ccccc32)cc1	–
> 0.009 µM	> 0.23 µM	> 0.044 µM	–	COc1ccc(C2CC(c3ccc(C(F)(F)F)cc3)=NN2c2ccc(S(N)(=O)=O)cc2)c(OC)c1OC (configuration not stated)	6.3 µM
–	–	0.169 µM	–	C/C(=N\O)c1ccc(N2C(=O)c3c(Cl)c(Cl)c(Cl)c(Cl)c3C2=O)cc1	–
0.0343 µM	–	0.0139 µM	–	NS(=O)(=O)c1ccc(/N=C2\C(=O)N(Cc3ccccc3)c3ccccc32)cc1	–
0.0343 µM	–	0.0139 µM	–	C=CCN1C(=O)/C(=N\NC(=O)CNc2ccc(S(N)(=O)=O)cc2)c2ccccc21	–
–	–	0.0653 µM	–	NS(=O)(=O)c1ccc(NCC(=O)N/N=C2\C(=O)N(C(=O)c3ccccc3)c3ccccc32)cc1	–
–	–	0.169 µM	–	C/C(=N\O)c1ccc(N2C(=O)C3C(C2=O)C2(Cl)C(Cl)=C(Cl)C3(Cl)C2(Cl)Cl)cc1 (configuration not stated)	–
> 0.009 µM	> 0.23 µM	> 0.044 µM	–	COc1cc(OC)c(C2CC(c3ccc(Br)cc3)=NN2c2ccc(S(N)(=O)=O)cc2)cc1OC (configuration not stated)	6.3 µM
–	–	0.169 µM	–	C/C(=N\O)c1ccc(N2C(=O)c3ccc(C(C)(C)C)cc3C2=O)cc1	–
> 0.009 µM	> 0.23 µM	> 0.044 µM	–	COc1ccc(C2CC(c3cccs3)=NN2c2ccc(S(N)(=O)=O)cc2)c(OC)c1OC (configuration not stated)	6.3 µM
–	–	–	0.00021 µM	Cc1ccc(C(=O)/C=C/Nc2ccc(S(N)(=O)=O)cc2)cc1	–
–	–	–	0.00021 µM	NS(=O)(=O)c1ccc(N/C=C/C(=O)c2ccccc2)cc1	–
